From PubChem BioAssay AID2060900 (Molecular Pharmacology Branch, DTP, NCI, 2025)

Tested on: 521955-158-R2-J5-PDC complex spheroids, viability
Assay: Anticancer human tumor 521955-158-R2-J5-PDC patient-derived pancreatic carcinoma cell line growth inhibition [RAS]
Conditions: for IC50: curve of first compound; for viability, T/C: stronger effect = lower value
How it was run: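 Tumour cells grown as complex spheroids with HUVEC endothelial cells and mesenchymal stem cells, treated with RAS pathway inhibitor combinations. Each agent spans half-log steps from near clinical Cmax, or 10 microM where Cmax is unknown.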
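Also: compound exposure lasted seven days before the viability read.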
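For viability, T/C in this document: spheroids also contain HUVEC endothelial cells and mesenchymal stem cells as stroma.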

For `CC(=O)OC12COC1CC(O)C1(C)C(=O)C(O)C3=C(C)C(OC(=O)C(O)C(NC(=O)OC(C)(C)C)c4ccccc4)CC(O)(C(OC(=O)c4ccccc4)C21)C3(C)C` (configuration not stated) + C#Cc1c(F)ccc2cc(O)cc(-c3ncc4c(N5CC6CCC(C5)N6)nc(OCC56CCCN5CC(F)C6)nc4c3F)c12, the IC50 (second compound 0.0316 µM) was < 31.6 nM, the IC50 (second compound 0.1 µM) was < 31.6 nM and the IC50 (second compound 0.316 µM) was < 31.6 nM. For the same compound, the IC50 (second compound 1 µM) was < 31.6 nM, the IC50 (second compound 3.16 µM) was < 31.6 nM and the IC50 (second compound 10 µM) was < 31.6 nM. For the same compound, the viability, T/C (second compound 0.0316 µM, first compound 0.0316 µM) was 32.5%, the viability, T/C (second compound 0.0316 µM, first compound 0.1 µM) was 35.9% and the viability, T/C (second compound 0.0316 µM, first compound 0.316 µM) was 32.6%. It also gave a viability, T/C (second compound 0.0316 µM, first compound 1 µM) of 30.2%, a viability, T/C (second compound 0.0316 µM, first compound 3.16 µM) of 37.5% and a viability, T/C (second compound 0.0316 µM, first compound 10 µM) of 47.2%. For the same compound, the viability, T/C (second compound 0.1 µM, first compound 0.0316 µM) was 33.3%, the viability, T/C (second compound 0.1 µM, first compound 0.1 µM) was 39.6% and the viability, T/C (second compound 0.1 µM, first compound 0.316 µM) was 35.2%. It also gave a viability, T/C (second compound 0.1 µM, first compound 1 µM) of 37.7%, a viability, T/C (second compound 0.1 µM, first compound 3.16 µM) of 35.6% and a viability, T/C (second compound 0.1 µM, first compound 10 µM) of 40.4%. For the same compound, the viability, T/C (second compound 0.316 µM, first compound 0.0316 µM) was 33.2%, the viability, T/C (second compound 0.316 µM, first compound 0.1 µM) was 31.7% and the viability, T/C (second compound 0.316 µM, first compound 0.316 µM) was 28.6%. It also gave a viability, T/C (second compound 0.316 µM, first compound 1 µM) of 30.9%, a viability, T/C (second compound 0.316 µM, first compound 3.16 µM) of 37% and a viability, T/C (second compound 0.316 µM, first compound 10 µM) of 38.7%. It also gave a viability, T/C (second compound 1 µM, first compound 0.0316 µM) of 21.7%, a viability, T/C (second compound 1 µM, first compound 0.1 µM) of 34.3% and a viability, T/C (second compound 1 µM, first compound 0.316 µM) of 32.6%. For the same compound, the viability, T/C (second compound 1 µM, first compound 1 µM) was 29.4%, the viability, T/C (second compound 1 µM, first compound 3.16 µM) was 51.5% and the viability, T/C (second compound 1 µM, first compound 10 µM) was 40.5%. It also gave a viability, T/C (second compound 3.16 µM, first compound 0.0316 µM) of 27.4%, a viability, T/C (second compound 3.16 µM, first compound 0.1 µM) of 33.3% and a viability, T/C (second compound 3.16 µM, first compound 0.316 µM) of 30.8%. For the same compound, the viability, T/C (second compound 3.16 µM, first compound 1 µM) was 33.4%, the viability, T/C (second compound 3.16 µM, first compound 3.16 µM) was 31.1% and the viability, T/C (second compound 3.16 µM, first compound 10 µM) was 33%. The viability, T/C (second compound 10 µM, first compound 0.0316 µM) was 24.8%, the viability, T/C (second compound 10 µM, first compound 0.1 µM) was 34.1% and the viability, T/C (second compound 10 µM, first compound 0.316 µM) was 28.3%. The viability, T/C (second compound 10 µM, first compound 1 µM) was 28.7%, the viability, T/C (second compound 10 µM, first compound 3.16 µM) was 32.1% and the viability, T/C (second compound 10 µM, first compound 10 µM) was 25.1%.
